# Laboratory results taken from ChEMBL document CHEMBL3779789, “Tricyclic pyrazoles. Part 8. Synthesis, biological evaluation and modelling of tricyclic pyrazole carboxamides as potential CB2 receptor ligands with antagonist/inverse agonist properties” (Eur J Med Chem, 2016).
# Active and inactive are the calls of the source. No cut-off for these calls is given here.
# Columns and labels:
# Cannabinoid receptor 1 [1] = target: T1, Cannabinoid receptor 1 (Homo sapiens, UniProt P21554); assay: Displacement of [3H]CP55940 from human CB1 receptor expressed in HEK293-EBNA cell membrane incubated for 90 mins by liquid scintillation counting method; type: cell membranes
# T1 sequence (P21554 whole entry): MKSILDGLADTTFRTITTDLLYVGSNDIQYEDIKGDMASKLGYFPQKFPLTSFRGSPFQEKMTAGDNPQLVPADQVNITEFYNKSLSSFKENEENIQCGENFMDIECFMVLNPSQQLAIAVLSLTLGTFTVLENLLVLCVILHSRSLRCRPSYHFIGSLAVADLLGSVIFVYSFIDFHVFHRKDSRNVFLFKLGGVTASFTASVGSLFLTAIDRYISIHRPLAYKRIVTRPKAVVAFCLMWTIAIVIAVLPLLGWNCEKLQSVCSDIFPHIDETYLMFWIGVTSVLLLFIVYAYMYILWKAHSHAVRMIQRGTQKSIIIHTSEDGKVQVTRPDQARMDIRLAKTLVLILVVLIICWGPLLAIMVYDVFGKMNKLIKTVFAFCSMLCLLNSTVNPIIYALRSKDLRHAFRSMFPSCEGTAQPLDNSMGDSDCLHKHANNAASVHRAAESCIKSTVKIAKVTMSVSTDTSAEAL
# Cannabinoid receptor 2 [2] = target: T2, Cannabinoid receptor 2 (Homo sapiens, UniProt P34972); assay: Displacement of [3H]CP55940 from human CB2 receptor expressed in HEK293-EBNA cell membrane at 40 uM incubated for 90 mins by liquid scintillation counting method relative to control; type: cell membranes
# T2 sequence (P34972 whole entry): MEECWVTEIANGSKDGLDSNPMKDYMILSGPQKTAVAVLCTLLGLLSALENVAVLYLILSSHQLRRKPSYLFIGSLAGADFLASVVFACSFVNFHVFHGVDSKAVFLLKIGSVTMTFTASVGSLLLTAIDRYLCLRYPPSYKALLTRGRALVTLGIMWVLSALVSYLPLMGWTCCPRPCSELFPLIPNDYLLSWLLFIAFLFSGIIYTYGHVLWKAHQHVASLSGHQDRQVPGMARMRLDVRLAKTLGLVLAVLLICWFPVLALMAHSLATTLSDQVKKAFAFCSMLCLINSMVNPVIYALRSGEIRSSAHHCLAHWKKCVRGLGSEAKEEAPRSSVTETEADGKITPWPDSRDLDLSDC
# [3] = Selectivity ratio of Ki for human CB1 receptor expressed in HEK293-EBNA cell membrane to Ki for human CB2 receptor expressed in HEK293-EBNA cell membrane; type: cell-based
# Cannabinoid receptor 1 [4] = target: T1, Cannabinoid receptor 1; assay: Displacement of [3H]CP55940 from human CB1 receptor expressed in HEK293-EBNA cell membrane at 40 uM incubated for 90 mins by liquid scintillation counting method relative to control; type: cell membranes
# Cannabinoid receptor 2 [5] = target: T2, Cannabinoid receptor 2; assay: Displacement of [3H]CP55940 from human CB2 receptor expressed in HEK293-EBNA cell membrane incubated for 90 mins by liquid scintillation counting method; type: cell membranes
# [6] = target: Cannabinoid receptor 2 (Mus musculus) (UniProt P47936); assay: Antagonist activity at CB2 receptor in mouse BV2 cells assessed as reversal of WIN55,212-2-induced reduction of LPS-induced PGE2 production at 10 fold Ki concentration incubated for 16 hrs by ELISA; type: cell-based; conditions: BV-2
# Sequence of Cannabinoid receptor 2 (Mus musculus) (P47936 whole entry): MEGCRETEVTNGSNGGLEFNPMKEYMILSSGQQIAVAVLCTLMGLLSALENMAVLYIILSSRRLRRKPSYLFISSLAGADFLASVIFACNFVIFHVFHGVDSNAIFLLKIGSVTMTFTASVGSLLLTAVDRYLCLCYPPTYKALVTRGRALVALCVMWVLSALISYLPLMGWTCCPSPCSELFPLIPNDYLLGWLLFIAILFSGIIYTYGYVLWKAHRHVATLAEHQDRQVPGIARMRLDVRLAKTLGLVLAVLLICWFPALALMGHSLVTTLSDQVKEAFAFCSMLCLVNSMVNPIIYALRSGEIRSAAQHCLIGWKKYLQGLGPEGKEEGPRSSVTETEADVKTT
# Cannabinoid receptor 2 [7] = target: T2, Cannabinoid receptor 2; assay: Antagonist/inverse agonist activity at human CB2 receptors expressed in human Chem4 cell membrane incubated for 30 mins by [35S]GTPgammaS binding assay; type: functional, cell membranes
# [8] = target: Cannabinoid receptor 2 (Mus musculus) (UniProt P47936); assay: Antagonist/inverse agonist activity at CB2 receptor in mouse BV2 cells assessed as increase in LPS-induced PGE2 production at 10 fold Ki concentration incubated for 16 hrs by ELISA in presence of CB2 antagonist/inverse agonist SR144528; type: cell-based; conditions: BV-2
# [9] = target: Cannabinoid receptor 2 (Mus musculus) (UniProt P47936); assay: Antagonist/inverse agonist activity at CB2 receptor in mouse BV2 cells assessed as increase in LPS-induced PGE2 production at 10 fold Ki concentration incubated for 16 hrs by ELISA; type: cell-based; conditions: BV-2
SMILES,Ki (Cannabinoid receptor 1 [1]),Activity (Cannabinoid receptor 2 [2]),Ratio Ki [3],Activity (Cannabinoid receptor 1 [4]),Ki (Cannabinoid receptor 2 [5]),Activity [6],IC50 (Cannabinoid receptor 2 [7]),Activity [8],Activity [9]
CC1(C)C2CC[C@@](C)(C2)C1NC(=O)c1nn(-c2ccc(Cl)cc2Cl)c2c1CCc1cc(C3CC3)ccc1-2 (stereo partly drawn),> 40000 nM,> 70%,> 7.25,> 70%,5520 nM,–,–,–,–
O=C(c1nn(-c2ccc(Cl)cc2Cl)c2c1ccc1cc(C3CC3)ccc12)N1CCCCC1,> 40000 nM,> 70%,–,> 70%,> 40000 nM,–,–,–,–
O=C(NN1CCCCC1)c1nn(-c2ccc(Cl)cc2Cl)c2c1ccc1cc(C3CC3)ccc12,> 40000 nM,> 70%,> 48.5,> 70%,825 nM,–,–,–,–
O=C(NN1CCOCC1)c1nn(-c2ccc(Cl)cc2Cl)c2c1Cc1cc(C3CC3)ccc1-2,4030 nM,> 70%,20.4,> 70%,198 nM,–,–,–,–
O=C(NN1CCCCC1)c1nn(-c2ccc(Cl)cc2Cl)c2c1Cc1cc(C3CCCCC3)ccc1-2,> 10000 nM,> 70%,> 19.6,> 70%,509 nM,–,–,–,–
O=C(NC12CC3CC(CC(C3)C1)C2)c1nn(-c2ccc(Cl)cc2Cl)c2c1Cc1cc(C3CC3)ccc1-2,> 10000 nM,> 70%,> 2230,> 70%,4 nM,Active,50.7 nM,inactive,inactive
CC1(C)C2CCC(CNC(=O)c3nn(-c4ccc(Cl)cc4Cl)c4c3CCc3cc(C5CC5)ccc3-4)C1C2 (stereo not drawn),> 10000 nM,> 70%,–,> 70%,> 10000 nM,–,–,–,–
CC1(C)C2CC[C@@](C)(C2)C1NC(=O)c1nn(-c2ccc(Cl)cc2Cl)c2c1Cc1cc(C3CC3)ccc1-2 (stereo partly drawn),> 40000 nM,> 70%,> 6940,> 70%,6 nM,Active,80.4 nM,inactive,Active
CC1(C)C2CC[C@@](C)(C2)C1NC(=O)c1nn(-c2ccc(Cl)cc2Cl)c2c1Cc1cc(C3CCCCC3)ccc1-2 (stereo partly drawn),> 10000 nM,> 70%,–,> 70%,> 10000 nM,–,–,–,–
O=C(NN1CCCC1)c1nn(-c2ccc(Cl)cc2Cl)c2c1Cc1cc(C3CCCCC3)ccc1-2,> 10000 nM,> 70%,> 19.4,> 70%,515 nM,–,–,–,–
O=C(NN1CCCC1)c1nn(-c2ccc(Cl)cc2Cl)c2c1ccc1cc(C3CC3)ccc12,> 40000 nM,> 70%,–,> 70%,> 40000 nM,–,–,–,–
O=C(c1nn(-c2ccc(Cl)cc2Cl)c2c1Cc1cc(C3CC3)ccc1-2)N1CCCCC1,> 10000 nM,> 70%,> 24.2,> 70%,414 nM,–,–,–,–
O=C(NN1CCCCC1)c1nn(-c2ccc(Cl)cc2Cl)c2c1Cc1cc(C3CC3)ccc1-2,1850 nM,> 70%,26.7,> 70%,69.4 nM,–,294 nM,–,–
CC1(C)C2CC[C@@](C)(C2)C1NC(=O)c1nn(-c2ccc(Cl)cc2Cl)c2c1ccc1cc(C3CC3)ccc12 (stereo partly drawn),> 40000 nM,> 70%,–,> 70%,> 40000 nM,–,–,–,–
CC1(C)[C@@H]2CC[C@]1(C)[C@H](NC(=O)c1nn(-c3ccc(Cl)cc3Cl)c3c1Cc1cc(C4CC4)ccc1-3)C2,> 40000 nM,> 70%,> 1060,> 70%,38 nM,Active,26.9 nM,Active,inactive
O=C(NN1CCCCC1)c1nn(-c2ccc(Cl)cc2Cl)c2c1CCc1cc(C3CC3)ccc1-2,> 40000 nM,> 70%,> 280,> 70%,143 nM,–,–,–,–
O=C(NN1CCCC1)c1nn(-c2ccc(Cl)cc2Cl)c2c1Cc1cc(C3CC3)ccc1-2,4210 nM,> 70%,27.7,> 70%,152 nM,–,–,–,–
